# Data as given in patent US20040127512A1, “Method of treating symptoms of non-constipated irritable bowel syndrome” (Bradley Pharmaceuticals, Inc., priority 2002, published 2004).
# Assays:
# [1] = clinical study of oral methscopolamine bromide as antispasmodic medication in colonoscopy; format: in vivo; settings: 10 mg oral one hour before colonoscopy; 25 patients; control subjects 30%
# Method: A clinical study was undertaken with oral methscopolamine bromide as an antispasmodic medication in colonoscopy. The study comprised of 40 non-randomized patients. Thirty patients were given oral methscopolamine bromide prior to the procedure. […] The dose was increased to 10 mg for the following 25 patients. For the purpose of the study, in terms of spasm control a “success” was defined as a colonoscopy where there was no significant spasm on insertion and no intravenous Buscopan® was required. A failure was defined as the requirement of intravenous Buscopan® (antispasmodic). […] The study had both male and female patients.
# [2] = following oral administration; cited from earlier work
# [3] = in vivo; cited from earlier work
compound,measurement,setting,value
C[N+]1(C)[C@@H]2C[C@@H](OC(=O)[C@H](CO)c3ccccc3)C[C@H]1[C@@H]1O[C@@H]12 [methscopolamine bromide],patients with minimal or no spasm,[1],64%
same,time until drug effects appear,[2],about one
same,ability to cross the blood-brain-barrier,[3],limited ability to cross the blood-brain-barrier
same,route of excretion,[3],"excreted primarily in the urine and bile, or as unabsorbed drug in feces"
